Measured values published in ChEMBL document CHEMBL5344403, “Discovery and evaluation of phenacrylanilide derivatives as novel potential anti-liver fibrosis agents” (Eur J Med Chem, 2022).
Active and inactive are the calls of the source. The rule behind the calls is not given here.

Tests used:
LX-2 [1] = test: Inhibition of TGF-beta1-induced human LX2 activation at 20 uM pretreated with TGF-beta1 for 1 hr followed by compound addition and measured after 72 hrs by CCK-8 assay relative to control; type: functional
[2] = Antiproliferative activity against human LX2 cells assessed as cell survival rate at 20 uM incubated for 72 hrs by CCK-8 assay; type: toxicity, cell-based; conditions: LX-2 cells, read-out: Activity
LX-2 [3] = test: Antifibrotic activity against TGF-beta1 induced human LX2 cells assessed as reduction of alpha-SMA expression at 20 uM pretreated with TGF-beta1 for 1 hr followed by compound addition and measured after 24 hrs by Western blot analysis; type: functional, cell-based
LX-2 [4] = test: Antifibrotic activity against TGF-beta1 induced human LX2 cells assessed as reduction of fibronectin expression at 20 uM pretreated with TGF-beta1 for 1 hr followed by compound addition and measured after 24 hrs by Western blot analysis; type: functional, cell-based
[5] = Antiproliferative activity against human LO2 cells assessed as inhibition of cell growth incubated for 72 hrs by CCK-8 assay; type: toxicity, cell-based; conditions: LO2 (L02) cells
LX-2 [6] = test: […] of alpha-SMA mRNA expression in TGF-beta1-induced human LX2 cells at 20 uM pretreated with TGF-beta1 for 1 hr followed by compound addition and measured after 24 hrs by qRT-PCR analysis; type: functional, cell-based
LX-2 [7] = test: Downregulation of fibronectin mRNA expression in TGF-beta1-induced human LX2 cells at 20 uM pretreated with TGF-beta1 for 1 hr followed by compound addition and measured after 24 hrs by qRT-PCR analysis; type: functional, cell-based
LX-2 [8] = test: Downregulation of alpha-SMA mRNA expression in TGF-beta1-induced human LX2 cells at 20 uM pretreated with TGF-beta1 for 1 hr followed by compound addition and measured after 24 hrs by qRT-PCR analysis; type: functional, cell-based
LX-2 [9] = test: Effect on alpha-SMA protein level in TGF-beta1-induced human LX2 cells at 20 uM pretreated with TGF-beta1 for 1 hr followed by compound addition and measured after 24 hrs by Western blot analysis; type: functional, cell-based
LX-2 [10] = test: Effect on fibronectin protein level in TGF-beta1-induced human LX2 cells at 20 uM pretreated with TGF-beta1 for 1 hr followed by compound addition and measured after 24 hrs by Western blot analysis; type: functional, cell-based
Mus musculus [11] = test: Antifibrotic activity against CCL4-induced C57BL/6J mouse hepatic fibrosis model assessed as reduction in F4/80+CD11b+ in macrophage at 30 mg/kg, po measured for 3 weeks by flow cytometry analysis relative to control; type: functional; set-up: scale not given: the % may be the effect or the level left
Mus musculus [12] = test: Antifibrotic activity against CCL4-induced C57BL/6J mouse hepatic fibrosis model assessed as reduction in CD69/CD4 in Th1 cell cells at 30 mg/kg, po measured for 3 weeks by flow cytometry analysis relative to control; type: functional; set-up: scale not given: the % may be the effect or the level left
Mus musculus [13] = test: Antifibrotic activity against CCL4-induced C57BL/6J mouse hepatic fibrosis model assessed as reduction in CD69/CD8 in […] cell cells at 30 mg/kg, po measured for 3 weeks by flow cytometry analysis relative to control; type: functional; set-up: scale not given: the % may be the effect or the level left
Mus musculus [14] = test: Antifibrotic activity against CCL4-induced C57BL/6J mouse hepatic fibrosis model assessed as reduction in CD11b/Gr-1 in MDSC cells at 30 mg/kg, po measured for 3 weeks by flow cytometry analysis relative to control; type: functional; set-up: scale not given: the % may be the effect or the level left
[15] = Toxicity in CCL4-induced po dosed C57BL/6J mouse assessed as inflammatory cell infiltration in heart at 15 to 30 mg/kg, po by H and E staining based analysis; type: organism-based; conditions: in vivo, dose 15-30 mg/kg
[16] = Toxicity in CCL4-induced po dosed C57BL/6J mouse assessed as inflammatory cell infiltration in spleen at 15 to 30 mg/kg, po by H and E staining based analysis; type: organism-based; conditions: in vivo, dose 15-30 mg/kg
[17] = Toxicity in CCL4-induced po dosed C57BL/6J mouse assessed as inflammatory cell infiltration in lung at 15 to 30 mg/kg, po by H and E staining based analysis; type: organism-based; conditions: in vivo, dose 15-30 mg/kg

SMILES	inhibition at 20 µM (LX-2 [1])	viability at 72 h, 20 µM [2]	other results
COc1ccc(/C=C/C(=O)Nc2ccc(C(=O)NC3CC3)cc2)cc1OC	24.5%	74.3%	
COc1ccc(/C=C/C(=O)Nc2cccc(C(=O)N3CCCCC3)c2)cc1OC	17.7%	68.8%	
CNC(=O)c1ccccc1NC(=O)/C=C/c1ccc(OC)c(OC)c1	13%	67%	
COc1ccc(/C=C/C(=O)Nc2ccccc2C(=O)NC2CCCCC2)cc1OC	20%	45.3%	
COc1ccc(/C=C/C(=O)Nc2ccc(C(=O)NC3CCNC3)cc2)cc1OC (stereo not given)	17%	80.3%	
COc1ccc(/C=C/C(=O)Nc2ccccc2C(=O)NC2CC2)cc1OC	1.5%	71.5%	
COc1ccc(/C=C/C(=O)Nc2cccc(C(=O)NC3CCCC3)c2)cc1OC	53.8%	44.3%	Activity (LX-2 [3]): Active; Activity (LX-2 [4]): Active; IC50 at 72 h [5]: 8.4 µM
COc1ccc(/C=C/C(=O)Nc2ccc(C(=O)NC3CCCC3)nc2)cc1OC	41%	64.5%	Activity (LX-2 [6]): Active
O=C(/C=C/c1ccc2c(c1)OCCO2)Nc1ccc(C(=O)NC2CCCC2)cc1	18%	69.3%	
COc1cc(/C=C/C(=O)Nc2ccc(C(=O)NC3CCCC3)cc2)cc(OC)c1	36.7%	69.7%	Activity (LX-2 [3]): Active; Activity (LX-2 [4]): Active; IC50 at 72 h [5]: 17.3 µM
CNC(=O)c1cccc(NC(=O)/C=C/c2ccc(OC)c(OC)c2)c1	28.5%	79.7%	
COc1cccc(/C=C/C(=O)Nc2ccc(C(=O)NC3CCCC3)cc2)c1	19%	70.8%	
COc1ccc(CCC(=O)Nc2ccc(C(=O)NC3CCCC3)cc2)cc1OC	3%	71.7%	
COc1ccc(/C=C/C(=O)Nc2ccc(C(=O)NC3CCCC3)cc2)cc1O	29.5%	66.3%	
COc1ccc(/C=C/C(=O)Nc2ccc(C(=O)O)cc2)cc1OC	31%	81.5%	
COc1ccc(/C=C/C(=O)Nc2ccc(C(=O)NC3CCCCC3)cc2)cc1OC	14%	81.3%	
COc1ccccc1/C=C/C(=O)Nc1ccc(C(=O)NC2CCCC2)cc1	70.3%	70.8%	Activity (LX-2 [7]): Active; Activity (LX-2 [8]): Active; Activity (LX-2 [9]): inactive; Activity (LX-2 [10]): inactive
COc1ccc(/C=C/C(=O)Nc2ccc(C(=O)O)nc2)cc1OC	14%	98%	
COc1ccc(/C=C/C(=O)Nc2cccc(C(=O)NC3CC3)c2)cc1OC	30%	65.3%	
COc1ccc(/C=C/C(=O)Nc2ccccc2C(=O)NC2CCCC2)cc1OC	27%	88%	

SMILES	inhibition at 20 µM (LX-2 [1])	viability at 72 h, 20 µM [2]	other results
O=C(/C=C/c1ccc2c(c1)OCO2)Nc1ccc(C(=O)NC2CCCC2)cc1	22%	78%	
COc1cccc(/C=C/C(=O)Nc2cccc(C(=O)NC3CCCC3)c2)c1	25.3%	56%	
COc1ccc(/C=C/C(=O)Nc2ccc(C(=O)NC3CCCC3)cc2)cc1	32%	50.3%	
COc1ccc(/C=C/C(=O)Nc2cccc(C(=O)O)c2)cc1OC	26%	79.3%	
COc1ccc(/C=C/C(=O)Nc2ccccc2C(=O)NC2CCC2)cc1OC	19%	71%	
COc1ccc(/C=C/C(=O)Nc2ccc(C(=O)NC3CCC3)cc2)cc1OC	27%	68.3%	
COc1cccc(/C=C/C(=O)Nc2ccc(C(=O)NC3CCCC3)cc2)c1OC	17.3%	77%	
Cc1cc(C)cc(/C=C/C(=O)Nc2ccc(C(=O)NC3CCCC3)cc2)c1	3%	80.5%	
COc1ccc(/C=C/C(=O)Nc2ccc(C(=O)N3CCCCC3)cc2)cc1OC	29.5%	74%	
COc1ccccc1/C=C/C(=O)Nc1cccc(C(=O)NC2CCCC2)c1	17.3%	66%	
COc1ccc(/C=C/C(=O)Nc2cccc(C(=O)NC3CCC3)c2)cc1OC	31.7%	60%	
COc1ccc(OC)c(/C=C/C(=O)Nc2ccc(C(=O)NC3CCCC3)cc2)c1	26.3%	63%	
COc1ccc(/C=C/C(=O)Nc2ccc(C(=O)NC3CCNC3)nc2)cc1OC (stereo not given)	19.5%	76.5%	
CNC(=O)c1ccc(NC(=O)/C=C/c2ccc(OC)c(OC)c2)cc1	24%	79.5%	
COc1ccc(/C=C/C(=O)Nc2ccccc2C(=O)N2CCCCC2)cc1OC	13%	88.7%	
COc1ccc(CCC(=O)Nc2cccc(C(=O)NC3CCCC3)c2)cc1OC	13.8%	71.7%	
COc1ccc(/C=C/C(=O)Nc2ccccc2C(=O)O)cc1OC [TRANILAST]	17.5%	80%	IC50 at 72 h [5]: 82.3 µM; Activity (Mus musculus [11]): 5.09%; Activity (Mus musculus [12]): 1.66%; Activity (Mus musculus [13]): 1.92%; Activity (Mus musculus [14]): 2.87%; Activity [15]: Non-Toxic; Activity [16]: Non-Toxic; Activity [17]: Non-Toxic
COc1ccc(/C=C/C(=O)Nc2ccc(C(=O)NC3CCCC3)cc2)cc1OC	48.3%	46%	Activity (LX-2 [3]): Active; Activity (LX-2 [4]): Active; IC50 at 72 h [5]: 13.3 µM
COc1ccc(/C=C/C(=O)Nc2cccc(C(=O)NC3CCCCC3)c2)cc1OC	49.6%	39.8%	
